Key:
[1] = biological target: T1, Rho-associated protein kinase 2 (Homo sapiens, UniProt O75116); assay: Inhibition of ROCK2 (unknown origin)
[2] = Half life in iv dosed Wistar rat at 0.5 mg/kg; format: ADME, organism-based; conditions: in vivo
[3] = Oral bioavailability in Wistar rat at 1 mg/kg; format: ADME, organism-based; conditions: in vivo
[4] = biological target: Rho-associated protein kinase 1 (Homo sapiens, UniProt Q13464); assay: Binding affinity to ROCK1 (unknown origin) assessed as inhibition constant
Chain of Rho-associated protein kinase 1 (Q13464 whole entry): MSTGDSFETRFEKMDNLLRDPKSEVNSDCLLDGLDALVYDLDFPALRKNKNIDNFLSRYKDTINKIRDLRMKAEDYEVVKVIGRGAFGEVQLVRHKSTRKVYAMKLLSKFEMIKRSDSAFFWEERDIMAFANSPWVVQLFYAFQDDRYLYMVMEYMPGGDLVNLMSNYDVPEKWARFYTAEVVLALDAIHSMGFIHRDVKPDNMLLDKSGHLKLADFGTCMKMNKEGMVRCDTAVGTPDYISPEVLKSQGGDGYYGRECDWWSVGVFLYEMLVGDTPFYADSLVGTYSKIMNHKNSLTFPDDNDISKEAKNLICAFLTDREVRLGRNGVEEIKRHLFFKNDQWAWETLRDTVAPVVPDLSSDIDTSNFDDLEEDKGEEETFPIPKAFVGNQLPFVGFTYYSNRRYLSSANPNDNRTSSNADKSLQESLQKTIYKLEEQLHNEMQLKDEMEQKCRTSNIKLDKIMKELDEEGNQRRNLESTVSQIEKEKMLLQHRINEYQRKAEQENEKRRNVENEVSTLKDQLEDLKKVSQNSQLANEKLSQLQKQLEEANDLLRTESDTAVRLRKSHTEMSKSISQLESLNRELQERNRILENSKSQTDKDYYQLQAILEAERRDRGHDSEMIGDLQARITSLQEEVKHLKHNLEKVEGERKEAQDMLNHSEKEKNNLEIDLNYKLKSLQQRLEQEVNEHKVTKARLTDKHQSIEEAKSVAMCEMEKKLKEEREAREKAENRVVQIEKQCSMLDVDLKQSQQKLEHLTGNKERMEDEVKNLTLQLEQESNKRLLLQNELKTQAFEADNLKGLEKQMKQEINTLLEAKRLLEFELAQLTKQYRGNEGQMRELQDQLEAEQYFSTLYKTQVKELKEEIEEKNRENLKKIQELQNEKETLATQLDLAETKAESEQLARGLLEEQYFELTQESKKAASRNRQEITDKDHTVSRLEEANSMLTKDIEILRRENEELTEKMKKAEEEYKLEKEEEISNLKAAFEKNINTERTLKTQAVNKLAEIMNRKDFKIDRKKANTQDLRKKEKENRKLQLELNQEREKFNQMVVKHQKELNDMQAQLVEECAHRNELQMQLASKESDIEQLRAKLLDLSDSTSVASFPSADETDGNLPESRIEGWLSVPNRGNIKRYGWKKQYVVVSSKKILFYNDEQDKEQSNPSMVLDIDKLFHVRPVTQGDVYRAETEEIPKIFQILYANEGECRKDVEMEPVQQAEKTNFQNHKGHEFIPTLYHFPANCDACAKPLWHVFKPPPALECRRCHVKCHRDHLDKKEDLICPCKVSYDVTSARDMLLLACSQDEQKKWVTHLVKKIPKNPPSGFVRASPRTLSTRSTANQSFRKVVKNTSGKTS

[5] = biological target: T1, Rho-associated protein kinase 2; assay: Binding affinity to ROCK2 (unknown origin) assessed as inhibition constant
[6] = Oral bioavailability in BLM-induced Sprague-Dawley rat at 2 mg/kg measured upto 24 hrs; format: ADME, organism-based; conditions: in vivo
[7] = Half life in BLM-induced Sprague-Dawley rat at 1 mg/kg, iv measured upto 24 hrs; format: ADME, organism-based; conditions: in vivo

T1 sequence (O75116 whole entry): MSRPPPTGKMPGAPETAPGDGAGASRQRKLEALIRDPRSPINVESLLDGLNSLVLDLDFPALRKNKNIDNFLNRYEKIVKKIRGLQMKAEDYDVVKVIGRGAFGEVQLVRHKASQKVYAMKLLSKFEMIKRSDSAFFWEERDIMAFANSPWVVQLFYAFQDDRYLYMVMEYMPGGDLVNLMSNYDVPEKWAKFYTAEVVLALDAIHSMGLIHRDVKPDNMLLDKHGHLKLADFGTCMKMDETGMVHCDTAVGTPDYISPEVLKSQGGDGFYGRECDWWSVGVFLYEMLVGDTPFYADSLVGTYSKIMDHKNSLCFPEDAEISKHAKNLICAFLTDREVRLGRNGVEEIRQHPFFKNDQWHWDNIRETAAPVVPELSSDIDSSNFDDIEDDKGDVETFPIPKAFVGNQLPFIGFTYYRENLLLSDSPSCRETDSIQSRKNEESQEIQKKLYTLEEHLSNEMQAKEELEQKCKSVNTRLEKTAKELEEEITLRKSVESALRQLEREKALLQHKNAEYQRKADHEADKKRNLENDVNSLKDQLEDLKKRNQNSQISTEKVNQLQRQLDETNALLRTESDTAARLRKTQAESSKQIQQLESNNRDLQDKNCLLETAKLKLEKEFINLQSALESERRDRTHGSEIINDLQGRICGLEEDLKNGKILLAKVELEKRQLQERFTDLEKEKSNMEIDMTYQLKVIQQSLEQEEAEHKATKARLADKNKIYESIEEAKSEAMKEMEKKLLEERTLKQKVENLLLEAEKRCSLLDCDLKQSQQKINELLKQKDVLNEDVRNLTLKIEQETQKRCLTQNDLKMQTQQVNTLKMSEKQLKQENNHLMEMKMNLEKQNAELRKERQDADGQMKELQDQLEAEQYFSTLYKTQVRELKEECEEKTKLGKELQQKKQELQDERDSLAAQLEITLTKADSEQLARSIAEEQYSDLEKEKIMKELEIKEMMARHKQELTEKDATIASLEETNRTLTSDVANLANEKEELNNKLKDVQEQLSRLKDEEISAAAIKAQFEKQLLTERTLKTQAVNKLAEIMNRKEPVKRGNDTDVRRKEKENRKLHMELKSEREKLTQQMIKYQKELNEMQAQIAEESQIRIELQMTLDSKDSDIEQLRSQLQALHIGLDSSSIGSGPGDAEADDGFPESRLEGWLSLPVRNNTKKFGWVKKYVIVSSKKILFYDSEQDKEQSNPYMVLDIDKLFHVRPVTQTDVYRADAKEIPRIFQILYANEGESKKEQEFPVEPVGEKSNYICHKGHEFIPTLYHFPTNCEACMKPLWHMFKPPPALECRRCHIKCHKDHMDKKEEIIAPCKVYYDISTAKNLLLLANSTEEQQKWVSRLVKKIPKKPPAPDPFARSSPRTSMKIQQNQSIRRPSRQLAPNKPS

| Compound | IC50 [1] [nM] | also measured |
| --- | --- | --- |
| COc1cccc(CN2C(=O)N(c3ccc(-c4cn[nH]c4)c(OC)c3)CC23CC3)c1 | < 3 | – |
| Cc1c[nH]c2nccc(Oc3ccc(Nc4cc(Cl)nc(N)n4)cc3F)c12 | – | half-life [2]: 1.2 h; bioavailability [3]: 48% |
| c1cc(Oc2ccc3c(c2)CNCC3)c2c(-c3ccncc3)c[nH]c2c1 | – | Ki [4]: < 3 nM; Ki [5]: < 3 nM |
| COc1cc(-c2cc(C)cc(C)n2)sc1C(=O)NCC(O)CO (stereo not drawn) | 14 | – |
| Cc1c(C(=O)N[C@H]2C[C@]3(C2)C[C@H](c2n[nH]c(=O)c4ccccc42)C3)cnn1-c1ccccc1 (stereo partly drawn) | 0.2 | – |
| NC(=O)c1ccccc1O[C@H]1C[C@]2(C1)C[C@H](N1C(=O)NC(c3ccccc3Cl)C1=O)C2 (stereo partly drawn) | 2 | – |
| NC[C@@H](C(=O)Nc1ccc2cnsc2c1)c1ccc(CO)cc1 | 1.45 | – |
| COc1cccc(Cn2cnn(-c3ccc(-c4cn[nH]c4)cc3)c2=O)c1 | < 5 | – |
| COc1cccc(CN2CCN(c3ccc4c(c3)CCc3n[nH]cc3-4)C2=O)c1 | < 10 | – |
| COc1cccc(C(CO)NC(=O)c2cccc(-c3ccc4[nH]ncc4c3)c2)c1 (stereo not drawn) | – | bioavailability [6]: 45%; half-life [7]: 2.9 h |

— ChEMBL document CHEMBL5380823, “Application and Study of ROCK Inhibitors in Pulmonary Fibrosis: Recent Developments and Future Perspectives” (J Med Chem, 2023)
